Test system: wheat rust fungi (Puccinia recondita)
Test: Comparative Test Example: wheat rust foliar spray test
Format: in vivo
Settings: wheat (cv; Shirogane), 500 ppm foliar spray, inoculated after 5 days
Procedure: The spores of wheat rust fungi (Puccinia recondita) were sprinkling-inoculated. After inoculation, the plants were placed under a dark and humid condition at 23° C. for 1 day and were then cultivated at 20° C. under lighting for 8 days and a lesion area was observed.

## Cc1cc(C)n(-c2ccc(OCc3ccccc3-n3nnn(C)c3=O)c(Cl)c2)n1 [control compound, 1-{2-[2-chloro-4-(3,5-dimethyl-pyrazol-1-yl)-phenoxymethyl]-phenyl}-4-methyl-1,4-dihydrotetrazole-5-one]
  lesion area compared to the lesion area in untreated plants: ≥ 70%
